For test [1], the system named is Dunning AT-1 hormone-refractory prostate cancer tumor. In words: Experiment 1: Dunning AT-1 tumor transplanted subcutaneously in rats, tumors about 17 mm at start of treatment. Format: in vivo, Copenhagen-Fisher male rat. The text has this:
(§1) The Dunning prostate cancer cell-line, AT-1, is a completely hormone-refractory tumor. It lacks measurable quantities of receptors for androgens as well as estrogens. As a result, the clinical behavior of this tumor is not influenced by the presence or absence of sex steroids. The doubling time of the tumor is 2.5 days, which makes it one of the most […] of all hormone-refractory Dunning tumors. It has a low (less than 5%) tendency for metastasis. The Dunning tumors are suitable for evaluating immunologic experiments with prostate cancer as they grow in immunocompetent animals.
(§2) Biopsies from excised tumors where investigated microscopically using the TUNEL-technique. Tumor biopsies were investigated with immuno-cytochemistry and antibodies for macrophages and T-lymphocytes.
In this experiment Dunning AT-1 tumor was passed through two Copenhagen-Fisher male rats and then transplanted in a single piece, approximately 10 mm^3, which was placed subcutaneously on a third Copenhagen-Fisher male rat's dorsal side. Tumors were allowed to grow to approximately 17 mm in diameter before treatment started. Four groups of six rats each were used.
Freund's complete adjuvant is used to potentiate immune reactivity and to trigger a T-cell response.
Group 3 animals received only complete Freund's adjuvant, 0.1 mL intra-tumorally.
(§3) Group 4 animals served as tumor-bearing controls.
Tumors were measured by slide caliper at the onset of experiment. This was repeated at the end of experiment when animals were sacrificed, tumors excised, and tumor weight was noted.

Test [2] has the same test system.
Excerpt: as §1, §2
In the second experiment, rats were treated as in experiment 1, but tumor size was not allowed to exceed 10 mm in diameter. This experiment was made to further evaluate the influence of tumor size on the outcome of treatment.
Animals were divided in four groups:
as §3
After animals had been sacrificed, freshly frozen tumor samples were examined for apoptosis using the TUNEL technique.

In the next test the test system is myeloid cell line. The settings on record: in vitro; cited from earlier work.
The next test has as its system breast cancer cell lines. To be noted: in vitro; cited from earlier work.
[3] abbreviates: versus control, end of experiment 1.

Molecules are shown by their SMILES. Read-outs that look alike come from different tables or passages of the source.

`C[C@]12CC[C@H]3[C@@H](CC=C4C[C@@H](O)CC[C@@]43C)[C@@H]1CC[C@@H]2O` [βAED, Δ5-androstene-3-β, 17β-diol]: in test [1] (end of experiment 1), the mean tumor weight is given as 11.6 g and the median tumor weight came out at 10 g. Moreover, in test [1] (end of experiment 1 (sacrifice after 3 weeks)), the “Tumor Diameter (mm)” value was found to be 11.6 mm. In test [1] (setting [3]), the “Decrease in Tumor Size (mm)” value was determined as 7.6 mm and the “Percent Reduction” value turned out to be 39.58%. In test [2] (single injection of 80 mg βAED, control 5.8 g), the mean tumor weight turned out to be 2.9 g. Also, the “tumor growth observed macroscopically” value in test [2] (single injection, αAED animals sacrificed after 96 hours) is reported as “clear retardation of tumor growth”.
In the case of `C[C@]12CC[C@H]3[C@@H](CC=C4C[C@@H](O)CC[C@@]43C)[C@@H]1CC[C@H]2O` [αAED, Δ5-androstene-3-β, 17α-diol], the apoptotic effect entry in the test with myeloid cell line and in the test with breast cancer cell lines was “apoptotic effect” throughout. In addition, the “time for which tumor growth was arrested following treatment” value in test [2] (single injection of 10 mg αAED) is “at least 96 hours”.

Source of the values: patent publication US7241753B2, “Method of treatment of prostate cancer” (priority 2000, dated 2007).
